From BindingDB's records for doi:10.3109/14756366.2013.765413 (Karunya University, 2014)
pIC50: −log10 of the molar value.

Key:
[1] = target: T1, DNA topoisomerase I/type IB small subunit (Leishmania donovani, UniProt E9B7X3+E9BRC0); test: Stimultaneous Relaxation Assay; details: pH 7.5
T1 sequence (E9B7X3 whole entry): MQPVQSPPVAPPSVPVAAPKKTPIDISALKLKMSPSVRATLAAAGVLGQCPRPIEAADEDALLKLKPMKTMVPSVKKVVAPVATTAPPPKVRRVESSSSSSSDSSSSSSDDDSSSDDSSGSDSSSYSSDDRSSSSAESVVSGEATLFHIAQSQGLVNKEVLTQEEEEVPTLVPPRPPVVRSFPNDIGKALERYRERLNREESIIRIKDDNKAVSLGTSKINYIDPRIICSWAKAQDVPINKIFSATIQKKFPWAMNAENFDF
T1 sequence (E9BRC0 whole entry): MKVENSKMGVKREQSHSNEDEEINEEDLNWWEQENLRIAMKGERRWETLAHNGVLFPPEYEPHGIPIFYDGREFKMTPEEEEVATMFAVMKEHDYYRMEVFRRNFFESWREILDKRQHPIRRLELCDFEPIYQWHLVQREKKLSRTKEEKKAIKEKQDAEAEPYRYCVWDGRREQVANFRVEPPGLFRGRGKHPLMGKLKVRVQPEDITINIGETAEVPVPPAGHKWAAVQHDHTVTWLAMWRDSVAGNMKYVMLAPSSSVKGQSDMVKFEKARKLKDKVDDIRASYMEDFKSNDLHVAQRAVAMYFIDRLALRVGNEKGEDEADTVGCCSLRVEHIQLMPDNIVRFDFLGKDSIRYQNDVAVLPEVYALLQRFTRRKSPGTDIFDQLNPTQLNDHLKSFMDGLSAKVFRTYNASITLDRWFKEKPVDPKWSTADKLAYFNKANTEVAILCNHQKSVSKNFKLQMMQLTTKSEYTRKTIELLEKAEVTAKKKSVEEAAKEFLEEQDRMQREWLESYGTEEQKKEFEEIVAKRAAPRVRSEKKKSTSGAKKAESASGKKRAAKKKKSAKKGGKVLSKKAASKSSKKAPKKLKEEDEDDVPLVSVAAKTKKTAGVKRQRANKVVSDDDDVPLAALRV
Experimental: (§1) In simultaneous relaxation assay, CPT concentrations were 50 and 100 μM, whereas concentration of compounds were 50, 100 and 200 μM. Relaxation assay was carried out as described previously with LdTOPILS serially diluted in the relaxation buffer (25mM Tris-HCl pH 7.5, 5% glycerol, 0.5mM DTT, 10mM MgCl2, 2.5mM EDTA and […]) supercoiled pBluescript (SK ) DNA and 50mM KCl. The amount of supercoiled monomer DNA band fluorescence after ethidium bromide (EtBr) ([…]) staining was quantitated by using GEL Doc 2000 from Biorad (Hercules, CA, USA).

[2] = target: T1, DNA topoisomerase I/type IB small subunit; test: Preincubation Relaxation Assay; details: pH 7.5
Experimental: as §1, with “In the preincubation” for “In simultaneous relaxation”, “whereas various concentrations” for “whereas concentration”, “were 25, 50 and” for “were 50,”, “100” for “100 and 200”, “μM. LdTOP1LS was preincubated with compounds 3a-d at different concentrations for 5 min at 37 °Cbefore the addition of substrate DNA.” for “μM.”

Row | SMILES | pIC50 [1] | pIC50 [2]
1 | O=C1C(O)=C(C(C2=C(O)C(=O)c3ccccc3C2=O)c2ccccc2)C(=O)c2ccccc21 [Bi-lawsone analog, 3a] | 4.29 | 4.80
2 | CN(C)c1ccc(C(C2=C(O)C(=O)c3ccccc3C2=O)C2=C(O)C(=O)c3ccccc3C2=O)cc1 [Bi-lawsone analog, 3b] | 4.43 | 
3 | COc1cc(C(C2=C(O)C(=O)c3ccccc3C2=O)C2=C(O)C(=O)c3ccccc3C2=O)ccc1O [Bi-lawsone analog, 3c] |  | 4.85
4 | O=C1C(O)=C(C(C2=C(O)C(=O)c3ccccc3C2=O)c2ccc(O)cc2)C(=O)c2ccccc21 [Bi-lawsone analog, 3d] | 4.15 | 4.89
